We go through one compound from ChEMBL document CHEMBL1933003, “Cytotoxic esterified diterpenoid alkaloid derivatives with increased selectivity against a drug-resistant cancer cell line” (Bioorg Med Chem Lett, 2012).

The test system of assay [1] is DU-145. The assay is described as follows: Cytotoxicity against human DU145 cells by sulforhodamine B assay. Format: functional, cell-based. In general terms: Sulforhodamine B stains cellular protein and so reports cell mass.
The test system of assay [2] is KB. The assay is described as follows: Selectivity ratio of EC50 for human KB cells to EC50 for multi-drug resistant variant vincristine resistant human KB cells expressing P-glycoprotein by sulforhodamine B assay. Format: functional.
The subject of assay [3] is KB. Kind of assay: Cytotoxicity against human KB cells by sulforhodamine B assay. Format: functional, cell-based.
For assay [4], the system named is KB. The assay is described as follows: Cytotoxicity against multi-drug resistant variant vincristine resistant human KB cells expressing P-glycoprotein by sulforhodamine B assay. Format: functional, cell-based.
Assay [5] has as its system A549. Kind of assay: Cytotoxicity against human A549 cells by sulforhodamine B assay. Format: functional, cell-based.

Bounds are passed on as bounds.

The EC50 is the midpoint of the concentration-response curve. Low values mean a more potent agent, high ones a less potent agent. `CCN1C[C@]2(C)CC[C@H](OC)[C@@]34[C@@H]5C[C@H]6[C@H](OC)[C@@H]5[C@@]5(C[C@@H]6OC)OCO[C@@]5([C@@H](OC(=O)/C=C/c5cccc(C(F)(F)F)c5)[C@H]23)[C@@H]14`: the EC50 in assay [1] is 15.1 µM; in assay [3], over 20 µM; in assay [4], 9.1 µM; in assay [5], 10.2 µM. For the same compound, in assay [2], the “Ratio EC50” value was over 2.31.
